The values that follow come from patent US20150322051A1, “Macrocyclic picolinamides as fungicides” (Dow AgroSciences LLC, priority 2014, published 2015).

Structures are written as SMILES. Read-outs that look alike come from different tables or passages of the source. Some results are limits rather than exact numbers.

Test [1] deals with Mycosphaerella graminicola; anamorph: Septoria tritici (SEPTTR). As to the kind of experiment: Leaf blotch of wheat (SEPTTR) whole-plant fungicidal test. Type of test: in vivo. The settings on record: Zymoseptoria tritici, topical, low volume (track spray) application, 121.5 g/H. How it is done:
(§1) All fungicides were evaluated using the aforementioned method for their activity vs. all target diseases, unless stated otherwise. Wheat leaf blotch and brown rust activity were also evaluated using track spray applications, in which case the fungicides were formulated as EC formulations, containing 0.1% Trycol 5941 in the spray solutions. Wheat plants (variety Yuma) were grown from seed in a greenhouse in 50% mineral soil/50% soil-less Metro mix until the first leaf was fully emerged, with 7-10 seedlings per pot. These plants were inoculated with an aqueous spore suspension of Septoria tritici either prior to or after fungicide treatments. After inoculation the plants were kept in 100% relative humidity (one day in a dark dew chamber followed by two to three days in a lighted dew chamber at 20° C.) to permit spores to germinate and infect the leaf. The plants were then transferred to a greenhouse set at 20° C. for disease to develop. When disease symptoms were fully expressed on the 1st leaves of untreated plants, infection levels were assessed on a scale of 0 to 100 percent disease severity. Percent disease control was calculated using the ratio of disease severity on treated plants relative to untreated plants.

Test [2] has as its system Puccinia triticina; synonym: Puccinia recondita f. sp. tritici (PUCCRT). As to the kind of experiment: Wheat brown rust (PUCCRT) whole-plant fungicidal test. The format is in vivo. Conditions: topical, low volume (track spray) application, 121.5 g/H. How it is done:
as §1, with “plants. Wheat plants (variety Yuma) were grown from seed in a greenhouse in 50% mineral soil/50% soil-less Metro mix until the first leaf was fully emerged, with 7-10 seedlings per pot. These plants were inoculated with an aqueous spore suspension of Puccinia triticina either prior to or after fungicide treatments. […] The plants were then transferred to a greenhouse set at 24° C. for disease to develop. Fungicide formulation, application and disease assessment followed the procedures as described in the Example A.” for “plants.”

Setting [3] is: 24 h, 1 Day Protectant, read-out: Low Volume activity at 121.5 g/H SEPTTR 1DP (% disease control rating).
The mark [4] stands for this setting: 72 h, 3 Day Curative, read-out: Low Volume activity at 121.5 g/H SEPTTR 3DC (% disease control rating).
The mark [5] stands for this setting: 24 h, 1 Day Protectant, read-out: Low Volume activity at 121.5 g/H PUCCRT 1DP (% disease control rating).
[6] abbreviates: 72 h, 3 Day Curative, read-out: Low Volume activity at 121.5 g/H PUCCRT 3DC (% disease control rating).

Turning to `COc1ccnc(C(=O)N[C@H]2CCC[C@H](Cc3ccc(C(F)(F)F)cc3)[C@@H](CC(C)C)[C@H](C)OC2=O)c1OCOC(C)=O` [Compound 23], the pest or weed control at 121.5 g/ha in test [1] (setting [3]) is above 70%; in test [1] (setting [4]) it was below 70%; in test [2] (setting [5]) it was above 70%; in test [2] (setting [6]), below 70%.

For `COc1ccnc(C(=O)N[C@H]2CCC[C@H](Cc3ccc(C(F)(F)F)cc3)[C@@H](CC(C)C)[C@H](C)OC2=O)c1OCOC(=O)C(C)C` [Compound 24], the pest or weed control at 121.5 g/ha in test [1] (setting [3]) is above 70%; in test [1] (setting [4]), below 70%; in test [2] (setting [5]), below 70%; in test [2] (setting [6]), below 70%.

Turning to `COc1ccnc(C(=O)N[C@H]2CCC[C@H](Cc3ccc(C(F)(F)F)cc3)[C@@H](Cc3ccccc3)[C@H](C)OC2=O)c1OC(C)=O` [Compound 25], the pest or weed control at 121.5 g/ha in test [1] (setting [3]), in test [1] (setting [4]), in test [2] (setting [5]) and in test [2] (setting [6]) was below 70% in each case.

Take `COc1ccnc(C(=O)N[C@H]2CCC[C@H](Cc3ccc(C(F)(F)F)cc3)[C@@H](Cc3ccccc3)[C@H](C)OC2=O)c1OCOC(C)=O` [Compound 26]: the pest or weed control at 121.5 g/ha is above 70% in test [1] (setting [3]), below 70% in test [1] (setting [4]), above 70% in test [2] (setting [5]) and below 70% in test [2] (setting [6]).

For the compound `COc1ccnc(C(=O)N[C@H]2CCC[C@H](Cc3ccc(C(F)(F)F)cc3)[C@@H](Cc3ccccc3)[C@H](C)OC2=O)c1OCOC(=O)C(C)C` [Compound 27], the pest or weed control at 121.5 g/ha in test [1] (setting [3]) was above 70%; in test [1] (setting [4]), below 70%; in test [2] (setting [5]) it was above 70%; in test [2] (setting [6]), below 70%.

For `COc1ccnc(C(=O)N[C@H]2CCC[C@H](Cc3ccc(Cl)cc3)[C@@H](C3CCCC3)[C@H](C)OC2=O)c1OC(C)=O` [Compound 28], the pest or weed control at 121.5 g/ha is above 70% in test [1] (setting [3]), above 70% in test [1] (setting [4]), above 70% in test [2] (setting [5]) and below 70% in test [2] (setting [6]).

Take `COc1ccnc(C(=O)N[C@H]2CCC[C@H](Cc3ccc(Cl)cc3)[C@@H](C3CCCC3)[C@H](C)OC2=O)c1OCOC(C)=O` [Compound 29]: the pest or weed control at 121.5 g/ha in test [1] (setting [3]) is above 70%; in test [1] (setting [4]), above 70%; in test [2] (setting [5]) it was above 70%; in test [2] (setting [6]), below 70%.

In the case of `COc1ccnc(C(=O)N[C@H]2CCC[C@H](Cc3ccc(Cl)cc3)[C@@H](C3CCCC3)[C@H](C)OC2=O)c1OCOC(=O)C(C)C` [Compound 30], the pest or weed control at 121.5 g/ha in test [1] (setting [3]) is above 70%; in test [1] (setting [4]), above 70%; in test [2] (setting [5]), below 70%; in test [2] (setting [6]), below 70%.

As to `CCOCC(=O)OCOc1c(OC)ccnc1C(=O)N[C@H]1CCC[C@H](Cc2ccc(Cl)cc2)[C@@H](C2CCCC2)[C@H](C)OC1=O` [Compound 31], the pest or weed control at 121.5 g/ha in test [1] (setting [3]) is above 70%; in test [1] (setting [4]) it was above 70%; in test [2] (setting [5]), above 70%; in test [2] (setting [6]), below 70%.

With `COc1ccnc(C(=O)N[C@H]2CCC[C@H](CCCc3ccccc3)[C@@H](CCc3ccccc3)[C@H](C)OC2=O)c1OCOC(C)=O` [Compound 32], the pest or weed control at 121.5 g/ha in test [1] (setting [3]) is above 70%; in test [1] (setting [4]), below 70%; in test [2] (setting [5]) it was above 70%; in test [2] (setting [6]) it was below 70%.

On to `COc1ccnc(C(=O)N[C@H]2CCC[C@H](CCCc3ccccc3)[C@@H](CCc3ccccc3)[C@H](C)OC2=O)c1OC(C)=O` [Compound 33], for which the pest or weed control at 121.5 g/ha in test [1] (setting [3]) was above 70%; in test [1] (setting [4]), below 70%; in test [2] (setting [5]), below 70%; in test [2] (setting [6]), below 70%.

As to `COc1ccnc(C(=O)N[C@H]2CCC[C@H](CCC(C)C)[C@@H](CCc3ccccc3)[C@H](C)OC2=O)c1OCOC(C)=O` [Compound 34], the pest or weed control at 121.5 g/ha was above 70% in test [1] (setting [3]), above 70% in test [1] (setting [4]), above 70% in test [2] (setting [5]) and below 70% in test [2] (setting [6]).

`CCOCC(=O)OCOc1c(OC)ccnc1C(=O)N[C@H]1CCC[C@H](CCC(C)C)[C@@H](CCc2ccccc2)[C@H](C)OC1=O` [Compound 35]: the pest or weed control at 121.5 g/ha is above 70% in test [1] (setting [3]), above 70% in test [1] (setting [4]), above 70% in test [2] (setting [5]) and below 70% in test [2] (setting [6]).

Regarding `COc1ccnc(C(=O)N[C@H]2CCC[C@H](CCC(C)C)[C@@H](CCc3ccccc3)[C@H](C)OC2=O)c1OC(C)=O` [Compound 36], the pest or weed control at 121.5 g/ha in test [1] (setting [3]) is above 70%; in test [1] (setting [4]), above 70%; in test [2] (setting [5]), above 70%; in test [2] (setting [6]), below 70%.

Regarding `CCC[C@H]1CCC[C@H](NC(=O)c2nccc(OC)c2OCOC(C)=O)C(=O)O[C@@H](C)[C@@H]1Cc1ccccc1` [Compound 37], the pest or weed control at 121.5 g/ha in test [1] (setting [3]), in test [1] (setting [4]), in test [2] (setting [5]) and in test [2] (setting [6]) was above 70% in each case.

As to `CCC[C@H]1CCC[C@H](NC(=O)c2nccc(OC)c2OC(C)=O)C(=O)O[C@@H](C)[C@@H]1Cc1ccccc1` [Compound 38], the pest or weed control at 121.5 g/ha in test [1] (setting [3]), in test [1] (setting [4]), in test [2] (setting [5]) and in test [2] (setting [6]) was above 70% in each case.

As for `COc1ccnc(C(=O)N[C@H]2CCC[C@H](Cc3ccc(C(F)(F)F)cc3)[C@@H](Cc3ccc(F)cc3)[C@H](C)OC2=O)c1OCOC(C)=O` [Compound 39], the pest or weed control at 121.5 g/ha in test [1] (setting [3]) is above 70%; in test [1] (setting [4]) it was above 70%; in test [2] (setting [5]), below 70%; in test [2] (setting [6]), below 70%.

As for `COc1ccnc(C(=O)N[C@H]2CCC[C@H](Cc3ccc(C(F)(F)F)cc3)[C@@H](Cc3ccc(F)cc3)[C@H](C)OC2=O)c1OC(C)=O` [Compound 40], the pest or weed control at 121.5 g/ha in test [1] (setting [3]) is above 70%; in test [1] (setting [4]) it was below 70%; in test [2] (setting [5]), below 70%; in test [2] (setting [6]), below 70%.

`COc1ccnc(C(=O)N[C@H]2CCC[C@H](Cc3ccc(C(F)(F)F)cc3)[C@@H](Cc3ccc(F)cc3)[C@H](C)OC2=O)c1OCOC(=O)C(C)C` [Compound 41]: the pest or weed control at 121.5 g/ha in test [1] (setting [3]), in test [1] (setting [4]), in test [2] (setting [5]) and in test [2] (setting [6]) was below 70% each time.

With `COc1ccnc(C(=O)N[C@H]2CCC[C@H](CCC(C)C)[C@@H](C3CCCC3)[C@H](C)OC2=O)c1OCOC(C)=O` [Compound 42], the pest or weed control at 121.5 g/ha was above 70% in test [1] (setting [3]), above 70% in test [1] (setting [4]), above 70% in test [2] (setting [5]) and below 70% in test [2] (setting [6]).

Turning to `COc1ccnc(C(=O)N[C@H]2CCC[C@H](CCC(C)C)[C@@H](C3CCCC3)[C@H](C)OC2=O)c1OC(C)=O` [Compound 43], the pest or weed control at 121.5 g/ha in test [1] (setting [3]) is above 70%; in test [1] (setting [4]), above 70%; in test [2] (setting [5]), above 70%; in test [2] (setting [6]), below 70%.
